Test results as given in a melting point compilation (Tetko et al.; mined from patent text by program, amines drawn as free bases though some values may be those of a salt).

SMILES	melting point [°C]
COC(=O)NC1CCc2ccc(NC(=O)c3cccc(C)c3-c3ccc(C(F)(F)F)cc3)cc2CC1 (stereo not given)	190 to 193
CCOC(=O)Cc1ccc(OCc2nc(-c3ccccc3)oc2C)c(OC)c1	86 to 87
CN(C)c1cc2c(cc1C(F)(F)F)NC(=O)CC(c1ccnc(C#N)c1)=N2	248
O=c1c2ccccc2ncn1C1CCN(CCC(CC(F)(F)F)c2ccccc2)CC1 (stereo not given)	128 to 129
CC(=O)OCCCc1ccc(-c2ccc3cc(C(=O)OCc4ccccc4)ccc3c2)cc1C12CC3CC(CC(C3)C1)C2	132
CCOC(=O)CC(=O)c1cc(F)c(N2CCC(N)C2)nc1Nc1ccc(F)cc1F (stereo not given)	140 to 142
COc1ccc(CN(CCN(C)CCCCNC(=O)NCCSCc2csc(NC(=N)N)n2)c2ccccn2)cc1	104 to 106
COc1ccc(C(O)c2ccc(C(=O)N(C3CCCC3)C3CCCC3)cc2)cc1OC (stereo not given)	137 to 138
NC(=O)N1CCC(c2nn(-c3ccc(C(F)(F)F)cc3)c3ccc(F)cc23)CC1	172 to 174
COC12CC(C)(c3nnc(-c4cncc(Br)c4)[nH]3)CN(C)C1Cc1c[nH]c3cccc2c13 (stereo not given)	163 to 168
COc1ccc(CC(=O)N2CCC[C@H]2C(=O)O)cc1	138 to 139
Cc1csc(CC(=O)O)c1	49
COc1ccc(CCNCC(O)c2ccccc2)cc1Cl (stereo not given)	95 to 96
NC(Cc1noc2ccccc12)=NO	160 to 162
Cc1cccc(NC(=O)NC2N=C(c3ccccc3)c3ccccc3N(Cc3nccc4ccccc34)C2=O)c1 (racemic)	218 to 221
CC1C=CCCC1C(O)C(N)=O (stereo not given)	149 to 151

SMILES	melting point [°C]
O=C(O)[C@H](CCc1ccccc1)Oc1ccc(-c2ccco2)cc1	140 to 142
CC1(C)CCC(C)(C)c2cc(-c3cc4ccc(C(=O)O)cc4[nH]3)ccc21	215
CC(C)=CCCC(C)CCCC(C)=CC=CC(C)=CC(=O)O (stereo not given)	60 to 62
COc1ccc(CCBr)cc1OC	72 to 73
COc1ccc(C2(Oc3c(F)c(F)c(F)c(F)c3F)CCN(C)CC2)cc1	70 to 80
CC12C=CC(C)(O1)C(Br)C(=O)C2Br (stereo not given)	115 to 120
O=C(CCCCC1(c2ccccc2)CC(O)=C(SCCc2ccccc2)C(=O)O1)NCc1ccccc1 (stereo not given)	47 to 49
Cc1sc2c(Br)c3ccccc3c(-c3cc(C(C)C)c(O)c(C(C)C)c3)c2c1C	212 to 216
Cc1ccc(-n2c(-c3ccc(Br)cc3)c(Br)c(Br)c2-c2ccc(Br)cc2)cc1	240 to 242
NC(N)=Nc1nc(-c2csc(CNC(=O)CSCc3ccco3)n2)cs1	204
CC(=O)OC1CSC(Oc2ccc(-c3ccncc3)cc2)C(OC(C)=O)C1OC(C)=O (stereo not given)	180
COc1ccc(CSc2nnc(-c3ccc4ncccc4c3)o2)cc1C(F)(F)F	130 to 131
CC(C)(C)N(CCc1ccccc1)NC(=O)c1ccccc1	150 to 152
CCNc1c(C(=O)OCC)c(C)nc(N2CCN(C)CC2)c1[N+](=O)[O-]	59 to 61
CCCN(CCC)C1Cc2cccc3c2N(C1)C(=O)NC3 (stereo not given)	116 to 119

The next lines start with the values.

melting point [°C]	SMILES
139 to 140	CCOC(=O)Cc1c(-c2ccc(Cl)cc2)nn2cc(Cl)cnc12
57 to 59	CC1(C)c2ccccc2[C@H]2Nc3ccccc3[C@H]21 (relative stereo)
111	COc1ccc(-c2cccs2)cc1
83 to 85	C=CCN(CCC)S(=O)(=O)NC(=O)c1cc(N=C=S)c(F)cc1Cl
240 to 245	O=C(NC(CO)CO)c1ccc2cc(C(=O)O)[nH]c2c1
156 to 157	O=[N+]([O-])c1cnn2c1-c1ccccc1NC2
293 to 294	CN=C(NC#N)C1=CC2(CCOCC2)Oc2ccc([N+](=O)[O-])cc21
88 to 90	CCCc1nc2ccc(OC(F)(F)F)cc2[nH]1
198 to 200	CNc1cccc(-c2csc(NC(=N)N)n2)c1
130 to 147	CCn1c2ccccc2c2cc(OC)c(C(=O)O)cc21
84	Cc1cc(C(=O)NCOC(=O)CO)ncc1C(c1cc(F)ccc1F)S(=O)(=O)c1ccc(F)cc1 (stereo not given)
200 to 201	CCOC(=O)c1cn(C(C)(C)C)c2nc(NC(=O)c3ccc(C)cc3)sc12
199 to 201	O=C(O)c1ccc(C(Cc2ccc(F)cc2)C(=O)Nc2nc3ccccc3o2)cc1 (stereo not given)
130 to 133	CC(C)(Oc1ccc(CCCOc2ccc(-c3ccccc3)cc2)cc1)C(=O)O
215 to 218	O=C(O)CCOc1cccc2c1Cc1sc(S(=O)(=O)CCC(c3ccccc3)c3ccccc3)nc1-2
115 to 121	Cc1nc2cc(-n3cccc3)ccc2o1
152 to 153	CCCc1c(O)ccc2c1OC(C)(CCC(=O)O)CC2=O (stereo not given)
150 to 152	COC(=O)c1ccccc1S(=O)(=O)N1CCC2(C=Cc3ccccc32)CC1
87.5 to 89.5	COc1ccc(C(Cl)=NO)cc1
145	CC(C)c1nc(-c2ccccn2)ncc1-c1ccc(Cl)cc1

melting point [°C]	SMILES
133 to 135	Cc1c(CCl)ncn1C(c1ccccc1)(c1ccccc1)c1ccccc1
168 to 170	COCCNc1nc(N)nc(-c2ccccc2)c1-c1ccc(=O)n(C(C)C)n1
35 to 36	Cc1ccc(S(=O)(=O)OCCOc2ccc(OC(F)(F)F)cc2)cc1
120 to 130	O=C(O)[C@H](Cc1ccccc1)NS(=O)(=O)c1ccc2c(c1)Sc1ccccc1O2
159 to 162	CN1C(=O)c2cccc(S(=O)(=O)Cl)c2C1=O
114 to 118	Cc1ccc(C(=O)N(C)C)cc1-c1nc(N(C)CCCN(C)C)nc2c1CNC(=O)N2c1c(F)cccc1F
217 to 220	N#Cc1cccc(C(CC(=O)O)N2C(=O)c3ccccc3C2=O)c1 (stereo not given)
187	COCc1nc(C(C)(C)O)c(C(=O)O)n1Cc1ccc(-c2ccccc2-c2nnn[nH]2)cc1
117 to 118	O=C(c1ccccc1)N1CCCC(c2ccc(Cl)cc2)=N1
254 to 255	O=C(O)c1cc(Br)cc2c1NCCS2=O (stereo not given)
91 to 92	CCOc1ccc(C2=NN(Cc3ccccc3)C(=O)[C@H]3CCCC[C@@H]23)cc1OCC (relative stereo)
204 to 205	COc1c(C#Cc2ccccc2)c(=O)c2ccc(Cl)cc2[nH]c1=O
125 to 128	O=C(c1ccccc1F)c1cc(Cl)ccc1C(=O)C(Br)CN1C(=O)c2ccccc2C1=O (stereo not given)
228 to 229	Cc1nc2c3c(c(C(=O)NCCO)cc2n1C)CCC(c1ccccc1)O3 (stereo not given)
125 to 133	COc1cc(C(=O)NS(=O)(=O)c2ccccc2C)ccc1Cc1cn(C)c2ccc(CCNC(=O)N3CCOCC3)cc12
183 to 185	N#Cc1c(Cc2ccccc2)n[nH]c1N
142 to 144	O=c1c2ccccc2c(-c2ccc(Cl)cc2)nn1CCc1ccncc1
193 to 194	O=C1c2cccc(Oc3ccc(Cl)cc3)c2C(=O)N1Cc1cccnc1
186	O=C1Cc2cccc(C(=O)c3ccc(Cl)cc3)c2N1
